According to patent US20100016213A1, “USE OF A DITERPENOID COMPOUND FOR TREATING DIABETES” (National Taiwan University, priority 2008, published 2010):

How the values were obtained:
Assay type in all cases: in vivo
normal mice [1] = assay: Glycogen content in skeletal muscle, normal mice; details: 0.5 IU/kg i.p., 30 minutes after injection
Protocol: (§1) Normal, STZ-induced diabetic, and DIO-induced diabetic mice were intraeritoneally injected with borapetoside C (5 mg/kg) and Actrapid (0.5 IU/kg; a short-acting insulin provided by Novo Nordisk) or metformin (500 mg/kg). Their glycogen contents in skeletal muscle were determined 30 minutes after injections.

STZ-diabetic mice(IDDM) = assay: Glycogen content in skeletal muscle, STZ-diabetic mice; details: 0.5 IU/kg i.p., 30 minutes after injection
Protocol: as §1

[2] = system: DIO-induced diabetic mice(NIDDM); assay: Glycogen content in skeletal muscle, DIO-induced diabetic mice; details: 30 minutes after injection
Protocol: as §1

normal mice [3] = assay: Insulin sensitivity: plasma glucose reduction with insulin plus borapetoside C or vehicle, normal mice; details: thirty minutes after insulin
Protocol: (§2) The effect of borapetoside C on insulin sensitivity was tested following the method described in Liu, et al., Clinical and Experimental Pharmacology and Physiology 2005; 32: 649-654. Normal mice (n=6), STZ-induced diabetic mice (n=5), and DIO-induced diabetic mice (n=7) were treated with insulin at various doses (i.e., 0.1 IU/kg, 0.5 IU/kg, and 1.0 IU/kg) together with either borapetoside C (0.1 mg/kg) or a vehicle control. Their plasma glucose levels were examined before and thirty minutes after insulin administration. The activity of lowering plasma glucose levels (AL) was calculated following the formula described in Example 2 above.

[4] = system: STZ-induced diabetic mice; assay: Insulin sensitivity: plasma glucose reduction with insulin plus borapetoside C or vehicle, STZ-induced diabetic mice; details: thirty minutes after insulin
Protocol: as §2

[5] = system: DIO-induced diabetic mice; assay: Insulin sensitivity: plasma glucose reduction with insulin plus borapetoside C or vehicle, DIO-induced diabetic mice; details: thirty minutes after insulin
Protocol: as §2

[6] = system: liver phosphoenolpyruvate carboxykinase (PEPCK); assay: Liver PEPCK levels by western blot in STZ-induced mice; details: borapetoside C 5.0 mg/kg, twice per day for 7 days, insulin dose not given
Protocol: To characterize the effect of borapetoside C on liver glucose utilization, levels of liver phosphoenolpyruvate carboxykinase (PEPCK) were examined by western blot analysis in STZ-induced mice treated with borapetoside C (5.0 mg/kg, twice per day for 7 days), insulin, or a vehicle control.

normal mice [7] = assay: Lowering plasma glucose level, intraperitoneal injection, normal mice; details: normal mice, one hour after administration
Protocol: (§3) Normal and streptozotocin (STZ)-induced diabetic mice were administered with borapetoside A (5.0 mg/kg), borapetoside C (5.0 mg/kg), glibenclamide (5.0 mg/kg), metformin (500.0 mg/kg), or a vehicle control via intraperitoneal injection. STZ-induced diabetic mice are a well-known mouse model of type I diabetes (insulin dependent). See, e.g., Liu I M, et al., Neuroscience Letters 2001; 307: 81-84. Glibenclamide and metformin serve as two positive controls in this study.
(§4) The plasma glucose levels of the treated mice were determined before and one hour after administration. The activity of lowering plasma glucose levels (AL) is calculated following the formula: […]
(§5) Borapetoside C was administered to normal mice at 0.1, 1.0, 3.0, and 5.0 mg/kg and to STZ-diabetic mice at 0.1, 1.0, 3.0, and 5.0 mg/kg. The plasma glucose levels of the treated mice were examined before and after treatment.

[8] = system: STZ-induced diabetic mice; assay: Lowering plasma glucose level, intraperitoneal injection, STZ-induced diabetic mice (type I diabetes model); details: one hour after administration
Protocol: as §3, §4, §5

[9] = system: DIO-induced diabetic mice; assay: Lowering plasma glucose level, intraperitoneal injection, diet-induced obesity diabetic mice (type II diabetes model); details: one hour after administration
Protocol: Normal and diet-induced obesity diabetic mice (“DIO-induced diabetic mice) were administered with borapetoside A (5.0 mg/kg), borapetoside C (5.0 mg/kg), glibenclamide (5.0 mg/kg), metformin (500.0 mg/kg), or a vehicle control via intraperitoneal injection. DIO-induced diabetic mice are a well-known mouse model of type II diabetes (non-insulin dependent). See Liu et al., J Mol. Endocrinol. 2008.
The plasma glucose levels of the treated mice were determined before and one hour after administration. The activities of these compounds for lowering plasma glucose levels were calculated as described above.
Borapetoside C was administered to DIO-induced diabetic mice at 0.1, 1.0, 3.0, and 5.0 mg/kg and the plasma glucose levels were examined before and after administration. The basal plasma glucose concentration in diet-induced diabetic mice (untreated) was 174.6±7.7 mg/dL. One hour after treatment, the plasma glucose levels in mice treated with vehicle control, 0.1 mg/kg borapetoside C, 1.0 mg/kg borapetoside C, 3.0 mg/kg borapetoside C, and 5.0 mg/kg borapetoside C were 172.5±10.9 mg/dL, 170.5±6.8 mg/dL, 127.9±6.0 mg/dL, 121.3±4.3 mg/dL and 119.9±4.6 mg/dL, respectively.

normal mice [10] = assay: Lowering plasma glucose levels via oral administration, normal mice; details: oral 10.0 mg/kg, sixty minutes after treatment, mean ± SEM, six animals
Protocol: (§6) Normal, STZ-induced diabetic mice, and diet-induced diabetic mice were administered orally with 10.0 mg/kg borapetoside C, glibenclamide or metformin as a positive control, and a vehicle control. The plasma glucose levels of the treated mice were determined before and sixty minutes after treatment and the results thus obtained were shown in Table 3 below.

[11] = system: Diet-induced diabetic mice (NIDDM); assay: Lowering plasma glucose levels via oral administration, diet-induced diabetic mice; details: oral 10.0 mg/kg, sixty minutes after treatment, mean ± SEM, six animals
Protocol: as §6

normal mice [12] = assay: Plasma insulin levels before and after treatment (Insulin ELISA), normal mice; details: 5.0 mg/kg i.p.; for Plasma insulin, Pre-treatment: before treatment; for Plasma insulin, post-treatment: one hour after treatment
Protocol: (§7) Normal mice, STZ-induced diabetic mice, and diet-induced diabetic mice were administered with a vehicle control, borapetoside A (5.0 mg/kg), borapetoside C (at various doses), glibenclamide (5.0 mg/kg) or metformin (500 mg/kg) by intraperitoneal injection. These mice were examined for their blood insulin levels before and one hour after treatment, using the Insulin(Rat) ELISA kit obtained from Penisula Lab. Inc., San Carlos, Calif., USA.

[13] = system: Diet-induced diabetic (NIDDM) mice; assay: Plasma insulin levels before and after treatment (Insulin ELISA), diet-induced diabetic mice; details: 5.0 mg/kg i.p.; for Plasma insulin, Pre-treatment: before treatment; for Plasma insulin, post-treatment: one hour after treatment
Protocol: as §7

Normal ICR mice = assay: Intraperitoneal glucose tolerance test (IPGTT), normal ICR mice; details: borapetoside C 5.0 mg/kg
Protocol: (§8) Normal ICR mice and DIO-induced diabetic mice, treated with borapetoside C (5.0 mg/kg), a vehicle control, or glibenclamide (positive control), were subjected to an intraperitoneal glucose tolerance test (IPGTT) as described in Lamont et al., Diabetes 2008; 57: 190-198. More specifically, glucose (2.0 mg/g body weight) was administered via IP injection to normal and DIO mice and blood samples were drawn from the treated mice before and 30, 60, 120, and 150 min after glucose administration for examination of glucose levels.
In normal mice treated with borapetoside C, the vehicle control, and glibenclamide, the basal plasma glucose concentrations were 106.8±4.7 mg/dL, 114.7±4.6 mg/dL, and 104.9±3.1 mg/dL, respectively. Thirty minutes after intraperitoneal glucose injection, the plasma glucose concentration was elevated to 346.2±14.7 mg/dL in vehicle-treated mice, to 292.9±10.9 mg/dL in borapetoside C-treated mice, or to 273.4±13.6 mg/dL in glibenclamide-treated mice.

[14] = system: DIO-induced diabetic mice; assay: Intraperitoneal glucose tolerance test (IPGTT), DIO-induced diabetic mice; details: diet-induced diabetic mice, borapetoside C 5.0 mg/kg
Protocol: as §8
In diet-induced diabetic mice treated with borapetoside C, the vehicle control, and glibenclamide, the basal plasma glucose concentrations were 181.6±12.3 mg/dL, 183.1±2.9 mg/dL, and 185.3±7.7 mg/dL, respectively. Thirty minutes after intraperitoneal glucose injection, the plasma glucose concentration was elevated to 405.6±8.9 mg/dL in vehicle-treated mice, to 343.5±11.2 mg/dL in borapetoside C-treated mice, or to 339.1±15.4 mg/dL in glibenclamide-treated mice.

STZ-diabetic mice (IDDM) [15] = assay: Lowering plasma glucose levels via oral administration, STZ-diabetic mice; details: oral 500.0 mg/kg, sixty minutes after treatment, mean ± SEM, six animals
Protocol: as §6

STZ-diabetic mice (IDDM) [16] = assay: Plasma insulin levels before and after treatment (Insulin ELISA), STZ-diabetic mice; details: for Plasma insulin, post-treatment: one hour after treatment; for Plasma insulin, Pre-treatment: before treatment
Protocol: as §7

[17] = Insulin 0.1 IU/kg together with Vehicle
[18] = Insulin 0.5 IU/kg together with Vehicle
[19] = Insulin 1.0 IU/kg together with Vehicle
[20] = 5.0 mg/kg intraperitoneal injection
[21] = 500.0 mg/kg intraperitoneal injection

For “Insulin: Actrapid, a short-acting insulin provided by Novo Nordisk [reference compound]”, the “Glycogen content (μmol/g wet weight)” value (normal mice [1]) was 30.2 ± 2.0 μmol/g wet weight, the “Glycogen content (μmol/g wet weight)” value (STZ-diabetic mice(IDDM)) was 30.0 ± 1.0 μmol/g wet weight and the “Glycogen content (μmol/g wet weight)” value ([2]; 0.5 IU/kg i.p.) was 20.2 ± 0.6 μmol/g wet weight. The “AL (%)” value (normal mice [3]; [17]) was 14.6 ± 0.8%, the “AL (%)” value (normal mice [3]; [18]) was 37.5 ± 1.1% and the “AL (%)” value (normal mice [3]; [19]) was 56.8 ± 1.9%. For the same molecule, the “AL (%)” value [4, 17] was 8.7 ± 1.6%, the “AL (%)” value [4, 18] was 11.5 ± 0.6% and the “AL (%)” value [4, 19] was 24.0 ± 1.3%. For the same molecule, the “AL (%)” value [5, 17] was 19.5 ± 1.5%, the “AL (%)” value [5, 18] was 27.5 ± 2.6% and the “AL (%)” value [5, 19] was 32.0 ± 1.1%. The “liver PEPCK levels versus vehicle control-treated mice (western blot)” value [6] was “much lower”.
In the case of `COc1ccc(Cl)cc1C(=O)NCCc1ccc(S(=O)(=O)NC(=O)NC2CCCCC2)cc1` [glibenclamide, reference compound], the “Activities of Lowering Plasma Glucose Levels (AL)” value (normal mice [7]; [20]) is reported as 19.3 ± 1.6%, the “Activities of Lowering Plasma Glucose Levels (AL)” value [8, 20] is reported as 3.2 ± 1.9% and the “AL (activity of lowering plasma glucose levels)” value [9, 20] is reported as 25.8±2.1%. The “Activity of lowing plasma glucose levels (%)” value (“Activity … (%)” for short) (normal mice [10]) was 25.9 ± 3.5 %, the “Activity … (%)” value [11] was 34.9 ± 4.0 % and the “Plasma insulin, Pre-treatment” value (normal mice [12]) was 50.8 ± 3.6 pmol/L. For the same molecule, the “Plasma insulin, post-treatment” value (normal mice [12]) was 149.5 ± 15.0 pmol/L, the “Plasma insulin, Pre-treatment” value [13] was 119.3 ± 9.6 pmol/L and the “Plasma insulin, post-treatment” value [13] was 197.0 ± 18.8 pmol/L. The “basal plasma glucose concentration (IPGTT)” value (Normal ICR mice; before glucose injection) was 104.9 ± 3.1 mg/dL, the “plasma glucose concentration thirty minutes after intraperitoneal glucose injection (IPGTT)” value (Normal ICR mice; glucose 2.0 mg/g body weight IP, vehicle 346.2±14.7) was 273.4 ± 13.6 mg/dL and the “basal plasma glucose concentration (IPGTT)” value ([14]; before glucose injection) was 185.3 ± 7.7 mg/dL. For the same molecule, the “plasma glucose concentration thirty minutes after intraperitoneal glucose injection (IPGTT)” value ([14]; glucose 2.0 mg/g body weight IP, vehicle 405.6±8.9) was 339.1 ± 15.4 mg/dL.
`CN(C)C(=N)N=C(N)N` [metformin, reference compound] was tested, and the “Activities of Lowering Plasma Glucose Levels (AL)” value (normal mice [7]; [21]) was 20.0 ± 2.5%, the “Activities of Lowering Plasma Glucose Levels (AL)” value ([8]; intraperitoneal injection) was 34.1 ± 5.5% and the “AL (activity of lowering plasma glucose levels)” value [9, 21] was 30.7±0.6%. For the same molecule, the “Activity … (%)” value (STZ-diabetic mice (IDDM) [15]) was 18.1 ± 1.9 %, the “Plasma insulin, post-treatment” value (STZ-diabetic mice (IDDM) [16]; 500 mg/kg i.p.) was 15.1 ± 1.5 pmol/L and the “Plasma insulin, Pre-treatment” value (STZ-diabetic mice (IDDM) [16]) was 13.5 ± 1.1 pmol/L. For the same molecule, the “Glycogen content (μmol/g wet weight)” value ([2]; 500 mg/kg i.p.) was 23.5 ± 0.9 μmol/g wet weight.
`C[C@@]12C[C@@H](c3ccoc3)OC(=O)[C@@H]1C[C@@H]1OC(=O)[C@@]3(O)[C@@H](O[C@@H]4O[C@H](CO)[C@@H](O)[C@H](O)[C@H]4O)CC[C@@H]2[C@@]13C` [borapetoside A] was tested, and the “Activities of Lowering Plasma Glucose Levels (AL)” value (normal mice [7]; [20]) was 49.4 ± 4.8%, the “Activities of Lowering Plasma Glucose Levels (AL)” value [8, 20] was 54.3 ± 6.3% and the “AL (activity of lowering plasma glucose levels)” value [9, 20] was 29.7±6.1%. For the same molecule, the “Plasma insulin, Pre-treatment” value (normal mice [12]) was 56.0 ± 2.8 pmol/L, the “Plasma insulin, post-treatment” value (normal mice [12]) was 117.6 ± 10.8 pmol/L and the “Plasma insulin, Pre-treatment” value (STZ-diabetic mice (IDDM) [16]; 5.0 mg/kg i.p.) was 16.0 ± 4.1 pmol/L. For the same molecule, the “Plasma insulin, post-treatment” value (STZ-diabetic mice (IDDM) [16]; 5.0 mg/kg i.p.) was 18.7 ± 8.4 pmol/L, the “Plasma insulin, Pre-treatment” value [13] was 106.6 ± 14.6 pmol/L and the “Plasma insulin, post-treatment” value [13] was 173.8 ± 26.9 pmol/L.
